According to patent publication US11401306B2, “HPV16 non HLA-restricted t-cell vaccines, compositions and methods of use thereof” (priority 2016, dated 2022):

Tests used:
Type in all cases: in vivo
[1] = tested on: TC-1 tumor; assay: TC-1 tumor regression screening of peptides in C57/B6 mice; set-up: key: Positive: a positive T-cell response was a T-cell response that resulted in regression of the tumor; conditions: TC-1 tumors in C57/B6 mice, vaccinated day 7, peptide alone or with cationic lipid
Source text: (§1) Sequence selection was accomplished herein using both tumor regression studies in C57/B6 mice, and interferon-gamma ELISPOT studies in HLA-A2 humanized transgenic mice. […] In the HLA-A2 mouse model ELISPOT study, at least 20 spots per million splenocytes was regarded to be a positive response.
This example illustrates the evaluation or screening of several HPV16 E7 peptides in the TC-1 mouse tumor regression model for their effective processing and presentation of the key epitopes leading to HPV-specific T-cell induction and subsequent tumor regression.
In the tumor regression screening studies mice were implanted with 100,000 TC-1 cells on day 0. On day 7, once the tumors were well established the mice were vaccinated with the specific peptide sequences, either formulated alone or in combination with cationic lipids such as DOTMA, DOEPC or R-DOTAP to facilitate up-take and presentation. In these studies, the vaccine contained the selected peptide at a concentration of 0.1-3.0 mg/mL and cationic liposomes at a concentration of 0.2-3.0 mg/mL. In the cases where the peptide sequences were lipidated by attaching a palmitoyl chain, the peptides were simply mixed with the cationic liposomes prior to vaccination. In the case of the non-lipidated peptides, the liposomes were made and peptides encapsulated by traditional thin film liposome preparation methods (F Szoka, and D Papahadjopoulos, Comparative Properties and Methods of Preparation of Lipid Vesicles (Liposomes), Annual Review of Biophysics and Bioengineering, Vol. 9:467-508, 1980). Other methods well known to those skilled in the art may also have been used.
A sample tumor regression plot showing results for peptides corresponding to SEQ ID NO: 1 (blank square), SEQ ID NOS: 7, 8, 31 32 and 31 (solid black circle), SEQ ID NO: 7 (blank circle), and SEQ ID NO: 8 (solid black triangle) is shown in FIG. 3.

[2] = tested on: HPV-specific T-cell response (splenocytes); assay: IFN-g ELISPOT on splenocytes of vaccinated humanized HLA-A2 transgenic mice
Source text: as §1
This example highlights the approach to evaluating T-cell responses using ELISPOT studies in humanized HLA-A2 transgenic mice. In these studies, the vaccine contained the selected peptide at a concentration of 0.1-3.0 mg/mL and cationic liposomes when used, at a concentration of 0.2-3.0 mg/mL. Humanized HLA-A2 transgenic mice having components of the human immune system capable of recognizing human antigens were vaccinated on day 0 and day 7 with 100 uL of the vaccine. On day 14 the mice were sacrificed and HPV-specific immune response evaluated by interferon-gamma ELISPOT using standard approaches with the splecocytes from the mice (4-8 per group). The splenocytes were stimulated with the specified CD8+ T-cell epitope peptides or the long multi-epitope peptides specified in Table 2. The number of IFN-g spots per million cells is listed for the specified examples. […] The ability of the humanized transgenic mice to successfully generate a T-cell immune response (>20 spots) when stimulated with each of the long multi-epitope peptides as well as short single epitope peptides confirms that the selected peptides are effectively processed and presented to T-cells. In these studies, un-stimulated splenocytes and splenocytes stimulated with irrelevant peptides were both used together as negative controls in every assay. For the positive control in the assay ConA was used.
The present study was performed to evaluate the effect of chemical modification of select peptides on immunogenicity and their ability to be processed, presented and to prime human CD8+ HPV-specific T-cell responses. Peptides corresponding to SEQ ID NO: 23 and 25 contain cysteines which upon oxidation lead to the formation of dimers and other multimers. Two vaccine formulations were prepared containing peptides corresponding to SEQ ID NO: 23 and 25.
In Formulation A: Both peptides were monomeric with high purity confirmed by HPLC analysis. The vaccine contained 1.5-1.6 mg/mL of each peptide.
In Formulation B: Significant oxidation and multimer formation of both peptides was confirmed by HPLC analysis.
Both formulations were mixed 1:1 with 5.8 mg/mL of R-DOTAP prior to vaccination.
The immunogenicity of the peptides was compared as described in the above examples in 10 HLA-A2 mice per formulation by evaluating the ability to induce CD8+ T-cells. ELISPOT studies were performed as described above.

[3] = tested on: HPV-specific CD8+ T-cell induction (splenocytes); assay: ELISPOT in normal C57/B6 mice, peptide with other cationic lipids; conditions: stimulated with RAHYNIVTF (SEQ ID NO: 1)
Method: To determine if the identified long HPV16 peptides are compatible with other cationic lipids besides DOTAP, the peptide corresponding to SEQ ID NO: 26 was used as the model peptide in combination with two other cationic lipids DOTMA and DOEPC. To evaluate the ability of the peptides to effectively undergo processing and presentation, in the presence of both cationic lipids, an ELISPOT study was conducted using normal C57/B6 mice. ELISPOT studies were performed as described above and utilized to determine effective CD8+ T-cell induction.
In formulation 1, 1.35 mg/mL of DOTMA was mixed 1:1 v/v with 0.5 mg/mL of the peptide corresponding to SEQ ID NO: 26.
In formulation 2, 1.67 mg/mL of DOEPC was missed 1:1 v/v with 0.5 mg/mL of the peptide corresponding to SEQ ID NO: 26.
For each formulation 4 mice were vaccinated on Day 0 and Day 7. On Day 14 the mice were scarified and the splenocytes utilized in the ELISPOT study.

Substance: PalmKSS GQAEPDRAHYNIVTF [SEQ ID NO: 26]
- Immune Response, Method: tumor regression [1]: Positive tumor regression
- Immune Response, Method: ELISPOT ([2]; HLA-A2 humanized transgenic mice, IFN-gamma ELISPOT): Positive, ELISPOT (at least 20 spots per million splenocytes was regarded to be a positive response)
- ELISPOT result Av spots/10^6 cells ([2]; splenocytes stimulated with GQAEPDRAHYNIVTF (SEQ ID NO: 5)): 1,544 spots/10^6 cells
- ELISPOT result Av spots/10^6 cells ([2]; splenocytes stimulated with RAHYNIVTF (SEQ ID NO: 1)): 1,552 spots/10^6 cells
- ELISPOT result Av spots/10^6 cells ([3]; formulated with DOEPC (formulation 2)): 243 spots/10^6 cells
- ELISPOT result Av spots/10^6 cells ([3]; formulated with DOTMA (formulation 1)): 988 spots/10^6 cells
